These are literature values, as cited in patent US7739091B2, “Method for estimating protein-protein binding affinities” (The Research Foundation of State University of New York, priority 2006, dated 2010).

For this data set the following is noted: side chain flanked by peptide bonds, water to n-octanol.

As for `C[C@H](N)C(=O)O` [Ala], the transfer free energy is 0.87 kcal/mol. Take `N[C@@H](Cc1c[nH]cn1)C(=O)O` [His]: the transfer free energy is 0.92 kcal/mol. Turning to `N[C@@H](Cc1ccccc1)C(=O)O` [Phe], the transfer free energy was -1.81 kcal/mol.

Turning to `N[C@@H](CO)C(=O)O` [Ser], the transfer free energy was 0.85 kcal/mol.

For the molecule `C[C@@H](O)[C@H](N)C(=O)O` [Thr], the transfer free energy is 0.95 kcal/mol. In the case of `N[C@@H](Cc1ccc(O)cc1)C(=O)O` [Tyr], the transfer free energy is -0.8 kcal/mol.
